In US10798941B2, “Microbiocidal oxadiazole derivatives” (SYNGENTA PARTICIPATIONS AG, priority 2016, dated 2020):

How the values were obtained:
[1] = test system: Puccinia recondita f. Sp. Tritici; assay: Puccinia recondita f. sp. tritici / wheat / leaf disc preventative (brown rust); type: in vivo; conditions: foliar, 168 h, 200 ppm in the applied formulation, wheat leaf segments cv. Kanzler, preventative, inoculated 1 day after application, assessed 7 to 9 days after application, vs untreated, read-out: disease control
Method in brief: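 Preventative leaf-segment test: spray application of diluted formulated compound on wheat cv. Kanzler, spore inoculation after 1 day. Percent control relative to untreated segments rated 7 to 9 days post-application, with incubation at 19° C, 75% relative humidity, 12 h photoperiod.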

[2] = test system: Glomerella Lagenarium (Colletotrichum Lagenarium); assay: Glomerella lagenarium (Colletotrichum lagenarium) liquid culture / cucumber / preventative (anthracnose); type: cell-based; conditions: Colletotrichum orbiculare; 20 ppm in the applied formulation; liquid culture in PDB, 24° C., inhibition of growth measured photometrically 3 to 4 days after application, vs untreated; read-out: disease control
Method in brief: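 Conidia from cryogenic storage were mixed into potato dextrose broth. This was added to compound diluted from DMSO into 0.025% Tween20, tested at 20 ppm. Plates were incubated in the dark at 24 °C and 96% relative humidity, and growth was read photometrically after 2–7 days as % activity versus untreated check.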

[3] = test system: Puccinia recondita f. Sp. Tritici; assay: Puccinia recondita f. sp. tritici / wheat / leaf disc curative (brown rust); type: in vivo; conditions: foliar, 144 h, 200 ppm in the applied formulation, wheat leaf segments cv. Kanzler, applied 1 day after inoculation, assessed 6 to 8 days after application, vs untreated, read-out: disease control
Method in brief: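 Segments of wheat (cultivar Kanzler) sit on agar and are spore-inoculated first; after one day in darkness at 19° C and 75% RH the diluted formulated compound is sprayed on. A 12 h photoperiod follows at the same temperature and humidity before disease is scored against untreated controls.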

Phakopsora pachyrhizi = Phakopsora pachyrhizi / soybean / leaf disc preventative (Asian soybean rust); type: in vivo; conditions: foliar, 288 h, 200 ppm in the applied formulation, soybean leaf disks, inoculated one day after application, assessed 12 to 14 days after application, vs untreated, read-out: disease control
Method in brief: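 Read-out is percent disease control relative to untreated check discs, assessed once untreated discs show adequate disease, 12 to 14 days after application. Compounds, tested at 200 ppm in the applied formulation, are sprayed onto soybean leaf discs one day before inoculation with a spore suspension.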

| melting point | Compound | pest or weed control at 200 ppm [1] | inhibition of growth at 20 ppm [2] | pest or weed control at 200 ppm [3] | pest or weed control at 200 ppm (Phakopsora pachyrhizi) |
| --- | --- | --- | --- | --- | --- |
| 68.2 to 70.1 °C | FC(F)(F)c1ncn(Cc2ccc(-c3noc(C(F)(F)F)n3)cc2)n1 [Compound 1.39] | – | – | – | – |
| 145 to 147 °C | CCOC(=O)c1cnn(CC(F)c2ccc(-c3noc(C(F)(F)F)n3)cc2)c1 (centres unmarked) [Compound 1.311, ethyl 1-[2-fluoro-2-[4-[5-(trifluoromethyl)-1,2,4-oxadiazol-3-yl]phenyl]ethyl]pyrazole-4-carboxylate] | – | – | – | – |
| 131 to 135 °C | CCOC(=O)c1cnn(Cc2ccc(-c3noc(C(F)(F)F)n3)c(F)c2)c1 [Compound 1.252, ethyl 1-[[3-fluoro-4-[5-(trifluoromethyl)-1,2,4-oxadiazol-3-yl]phenyl]methyl]pyrazole-4-carboxylate] | – | – | – | – |
| 124 to 129 °C | CN(C)C(=O)c1cnn(Cc2ccc(-c3noc(C(F)(F)F)n3)cc2)c1 [Compound 1.149, N,N-dimethyl-1-[[4-[5-(trifluoromethyl)-1,2,4-oxadiazol-3-yl]phenyl]methyl]pyrazole-4-carboxamide] | – | – | – | – |
| 102 to 112 °C | CON(C)C(=O)c1cnn(Cc2ccc(-c3noc(C(F)(F)F)n3)cc2)c1 [Compound 1.260, N-methoxy-N-methyl-1-[[4-[5-(trifluoromethyl)-1,2,4-oxadiazol-3-yl]phenyl]methyl]pyrazole-4-carboxamide] | – | – | – | – |
| 157.6 to 161.9 °C | CCc1cccc(CC)c1-n1ncc(-c2cn(Cc3ccc(-c4noc(C(F)(F)F)n4)cc3)nn2)c1C [Compound 1.31, 3-[4-[[4-[1-(2,6-diethylphenyl)-5-methyl-pyrazol-4-yl]triazol-1-yl]methyl]phenyl]-5-(trifluoromethyl)-1,2,4-oxadiazole] | – | – | – | – |
| 86 to 96 °C | CCN(CC)C(=O)c1cnn(Cc2ccc(-c3noc(C(F)(F)F)n3)cc2)c1 [Compound 1.259, N,N-diethyl-1-[[4-[5-(trifluoromethyl)-1,2,4-oxadiazol-3-yl]phenyl]methyl]pyrazole-4-carboxamide] | – | – | – | – |
| 233 to 235 °C | O=C(Nc1ccc(Cl)cc1)c1cn(Cc2ccc(-c3noc(C(F)(F)F)n3)cc2)nn1 [Compound 1.282, N-(4-chlorophenyl)-1-[[4-[5-(trifluoromethyl)-1,2,4-oxadiazol-3-yl]phenyl]methyl]triazole-4-carboxamide] | ≥ 80% | – | – | – |
| 120 to 124 °C | N#Cc1ncnn1Cc1ccc(-c2noc(C(F)(F)F)n2)cc1 [Compound 1.41, 2-[[4-[5-(trifluoromethyl)-1,2,4-oxadiazol-3-yl]phenyl]methyl]-1,2,4-triazole-3-carbonitrile] | – | – | – | – |
| 156 to 161 °C | CNC(=O)c1cnn(Cc2ccc(-c3noc(C(F)(F)F)n3)cc2)c1 [Compound 1.150, N-methyl-1-[[4-[5-(trifluoromethyl)-1,2,4-oxadiazol-3-yl]phenyl]methyl]pyrazole-4-carboxamide] | – | – | – | – |
| 105 to 108 °C | N#Cc1ncn(Cc2ccc(-c3noc(C(F)(F)F)n3)nc2)n1 [Compound 1.257, 1-[[6-[5-(trifluoromethyl)-1,2,4-oxadiazol-3-yl]-3-pyridyl]methyl]-1,2,4-triazole-3-carbonitrile] | – | ≥ 80% | – | – |
| 128 to 138 °C | CONC(=O)c1cnn(Cc2ccc(-c3noc(C(F)(F)F)n3)cc2)c1 [Compound 1.266, ~{N}-methoxy-1-[[4-[5-(trifluoromethyl)-1,2,4-oxadiazol-3-yl]phenyl]methyl]pyrazole-4-carboxamide] | – | – | – | – |
| 81 to 91 °C | CC(C)(C)OC(=O)c1cnn(Cc2ccc(-c3noc(C(F)(F)F)n3)cc2)c1 [Compound 1.262, ~{tert}-butyl 1-[[4-[5-(trifluoromethyl)-1,2,4-oxadiazol-3-yl]phenyl]methyl]pyrazole-4-carboxylate] | ≥ 80% | ≥ 80% | – | – |
| 105 to 115 °C | CCCOC(=O)c1cnn(Cc2ccc(-c3noc(C(F)(F)F)n3)cc2)c1 [Compound 1.264, propyl 1-[[4-[5-(trifluoromethyl)-1,2,4-oxadiazol-3-yl]phenyl]methyl]pyrazole-4-carboxylate] | – | – | – | – |
| 166 to 176 °C | CCNC(=O)c1cnn(Cc2ccc(-c3noc(C(F)(F)F)n3)cc2)c1 [Compound 1.267, ~{N}-ethyl-1-[[4-[5-(trifluoromethyl)-1,2,4-oxadiazol-3-yl]phenyl]methyl]pyrazole-4-carboxamide] | – | – | – | – |
| 132 to 142 °C | COCCNC(=O)c1cnn(Cc2ccc(-c3noc(C(F)(F)F)n3)cc2)c1 [Compound 1.250, N-(2-methoxyethyl)-1-[[4-[5-(trifluoromethyl)-1,2,4-oxadiazol-3-yl]phenyl]methyl]pyrazole-4-carboxamide] | ≥ 80% | ≥ 80% | – | – |
| 88 to 98 °C | CON=Cc1cnn(Cc2ccc(-c3noc(C(F)(F)F)n3)cc2)c1 [Compound 1.285] | – | – | – | – |
| 174 to 177.2 °C | COC(=O)c1ncn(Cc2ccc(-c3noc(C(F)(F)F)n3)cc2)n1 [Compound 1.37, methyl 1-[[4-[5-(trifluoromethyl)-1,2,4-oxadiazol-3-yl]phenyl]methyl]-1,2,4-triazole-3-carboxylate] | ≥ 80% | ≥ 80% | – | – |
| – | COC(=O)c1cn(Cc2ccc(-c3noc(C(F)(F)F)n3)cc2)nc1C1CC1 [Compound 1.237, methyl 3-cyclopropyl-1-[[4-[5-(trifluoromethyl)-1,2,4-oxadiazol-3-yl]phenyl]methyl]pyrazole-4-carboxylate] | ≥ 80% | ≥ 80% | ≥ 80% | ≥ 80% |
| – | COc1ccc(C(C)c2ccc(-c3noc(C(F)(F)F)n3)cc2)cn1 (centres unmarked) [Compound 1.42, 3-[4-[1-(6-methoxy-3-pyridyl)ethyl]phenyl]-5-(trifluoromethyl)-1,2,4-oxadiazole] | ≥ 80% | ≥ 80% | ≥ 80% | ≥ 80% |
| 122 to 129 °C | COC(=O)c1cnn(Cc2ccc(-c3noc(C(F)(F)F)n3)cc2)c1 [Compound 1.248, methyl 1-[[4-[5-(trifluoromethyl)-1,2,4-oxadiazol-3-yl]phenyl]methyl]pyrazole-4-carboxylate] | – | – | – | – |
| – | COc1nc(Br)nn1Cc1ccc(-c2noc(C(F)(F)F)n2)cc1 [Compound 1.233, 3-[4-[(3-bromo-5-methoxy-1,2,4-triazol-1-yl)methyl]phenyl]-5-(trifluoromethyl)-1,2,4-oxadiazole] | ≥ 80% | ≥ 80% | ≥ 80% | ≥ 80% |
| – | COC(=O)c1cccc2nn(Cc3ccc(-c4noc(C(F)(F)F)n4)cc3)cc12 [Compound 1.192, methyl 2-[[4-[5-(trifluoromethyl)-1,2,4-oxadiazol-3-yl]phenyl]methyl]indazole-4-carboxylate] | ≥ 80% | ≥ 80% | ≥ 80% | ≥ 80% |
| – | COc1nc(N)nn1Cc1ccc(-c2noc(C(F)(F)F)n2)cc1 [Compound 1.215, 5-methoxy-1-[[4-[5-(trifluoromethyl)-1,2,4-oxadiazol-3-yl]phenyl]methyl]-1,2,4-triazol-3-amine] | ≥ 80% | ≥ 80% | ≥ 80% | ≥ 80% |
